Several values for one entry are separate records, joined by “and”; a condition that tells them apart may be missing. Identical values can stand only once. Entries after “also recorded” stand apart in the source; their conditions may differ. Like-named read-outs stand apart in the source and are kept apart here.
Tests used:
H35 hepatoma cells = experiment: Inhibition of tumor cell growth, H35 hepatoma; format: cell-based; details: read-out: I50, inhibition of tumor cell growth, H35 hepatoma
[1] = system: Human manca lymphoid leukemia; experiment: Inhibition of tumor cell growth, Human manca lymphoid leukemia; format: cell-based; details: read-out: I50, inhibition of tumor cell growth, Human manca lymphoid leukemia
[2] = biological target: T1, human dihydrofolate reductase (Homo sapiens, UniProt P00374); experiment: Inhibition of dihydrofolate reductase; format: biochemical; details: pure human enzyme from lymphoblastoid cells
T1 construct: Pure human dihydrofolate reductase from lymphoblastoid cells were used; endogenous in cells
T1 sequence (P00374 1-187): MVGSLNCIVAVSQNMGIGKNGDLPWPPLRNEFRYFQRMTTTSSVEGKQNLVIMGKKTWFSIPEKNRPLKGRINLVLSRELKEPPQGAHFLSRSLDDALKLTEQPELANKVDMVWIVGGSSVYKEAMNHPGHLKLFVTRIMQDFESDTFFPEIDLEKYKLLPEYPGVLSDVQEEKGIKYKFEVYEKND
Experimental: Pure human dihydrofolate reductase from lymphoblastoid cells were used. The enzymatic assay was performed as described by Pastore, Plante and Kisliuk in Methods in Enzymology 34:281 (1974).

[3] = biological target: T2, folylpolyglutamate synthetase (FPGS) (Homo sapiens, UniProt Q05932); experiment: Substrate activity towards CCRF-CEM human leukemia cell folylpolyglutamate synthetase (FPGS); format: biochemical; details: for Substrate activity: Conc 50 μM, CCRF-CEM human leukemia cell FPGS; for substrate for folylpolyglutamate synthetase: result in words
T2 construct: purified human leukemia cell folylpolyglutamate synthetase (FPGS); endogenous in cells; host or cells: CCRF-CEM human leukemia cells
T2 sequence (Q05932 43-587): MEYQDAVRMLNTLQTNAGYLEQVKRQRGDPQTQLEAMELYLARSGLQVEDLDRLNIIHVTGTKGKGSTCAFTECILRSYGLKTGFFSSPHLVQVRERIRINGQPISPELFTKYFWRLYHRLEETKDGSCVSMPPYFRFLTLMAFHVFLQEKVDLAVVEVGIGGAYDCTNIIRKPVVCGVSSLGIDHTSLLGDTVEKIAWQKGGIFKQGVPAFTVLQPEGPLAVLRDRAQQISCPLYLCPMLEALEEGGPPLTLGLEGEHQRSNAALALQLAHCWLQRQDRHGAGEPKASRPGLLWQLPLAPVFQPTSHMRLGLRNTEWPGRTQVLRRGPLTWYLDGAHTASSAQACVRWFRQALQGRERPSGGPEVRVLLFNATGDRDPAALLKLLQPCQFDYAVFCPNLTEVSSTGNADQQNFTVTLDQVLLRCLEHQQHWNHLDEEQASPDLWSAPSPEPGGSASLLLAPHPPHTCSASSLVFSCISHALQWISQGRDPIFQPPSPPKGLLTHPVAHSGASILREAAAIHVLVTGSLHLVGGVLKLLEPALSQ
Experimental: Compounds 1, 2 and 3 were evaluated as substrates of purified human leukemia cell folylpolyglutamate synthetase (FPGS).
The assays were performed as described by McGuire, Graber, Licato, Vincenz, Coward, Nimec and Galivan in Cancer Research 49:4517 (1989).

three tumor models = experiment: Antitumor activity in three tumor models (Table I); format: cell-based; details: result in words
Experimental: Manca cell growth assay was performed as described by Thorndike, Gaumont, Kisliuk, Sirotnak, Murthy and Nair in Cancer Research 49:158 (1989). Growth inhibition of H35hepatoma cells was measured as described by Patil, Jones, Nair, Galivan, Maley, Kisliuk, Gaumont, Duch and Ferone in the Journal of Medicinal Chemistry 32:1284 (1989) and that of CCRF-CEM human leukemia cells according to the procedures of McGuire, Graber, Licato, Vincenz, Coward, Nimec and Galivan (Cancer Research 49:4517, 1989).

[4] = format: physicochemical
Excerpt: In stage II the mixed anhydride 6 or 7 is reacted with an excess amount of a diester of .tau.-methyleneglutamic acid such as diethyl-.tau.-methyleneglutamic acid. Dimethyl, dibenzyl or di-t-butyl-.tau.-methylene glutamic acid may be substituted for the diethyl derivative. Diethyl-.tau.-methylene glutamate may be added as the hydrochloride form to the mixed anhydride solutions 6 or 7, followed by the addition of an equal amount or an excess of an acid acceptor such as triethylamine. Alternatively, diethyl-.tau.-methyleneglutamate hydrochloride may be dissolved in a suitable solvent such as DMF, neutralized with an equivalent amount of the acid acceptor, and then added to the mixed anhydride solution. This reaction mixture is stirred for 18 hours at 25-30° C. and the solvent is removed by evaporation under reduced pressure. The resulting coupled product is stirred with an excess of a mixture of 0.1 N NaOH and acetonitrile for 18 hours to give target compounds 1 or 2. […] The precipitate can be recovered by filtration, washed and dried.
For the preparation of compound 3 (Scheme 3), the solution of the mixed anhydride 6 is reacted with an excess amount of the diester of 3-hydroxyglutamic acid such as dimethyl-3-hydroxyglutamate. Diethyl, dibenzyl or di-t-butyl-3-hydroxyglutamate may be substituted for the dimethyl derivative. Dimethyl-3-hydroxyglutamate may be added to the solution of the mixed anhydrie as the hydrochloride followed by the addition of an equivalent or excess amount of the acid acceptor such as triethylamine. Alternatively, dimethyl-3-hydroxyglutamate hydrochloride may be dissolved in a suitable solvent such as DMF, neutralized with an equivalent amount of the acid acceptor such as triethylamine or N-methylmorpholine and then added to the mixed anhydride solution. The reaction mixture is then stirred for 18-24 hours at 25-30° C. and the solvent is removed by rotary evaporation under reduced pressure The resulting product is stirred with an excess of a 3:1 mixture of 0.1 N NaOH:acetonitrile for 10-18 hours to give target compound 3. […]

[5] = result in words, cited from earlier work
[6] = system: CCRF-CEM human leukemia cells; experiment: Inhibition of tumor cell growth, CCRF-CEM human leukemia; format: cell-based
[7] = system: H35 hepatoma cells (folinic acid transport); experiment: Inhibition of folinic acid transport to H35 hepatoma cells; format: cell-based; details: for IC50: 0.25 h, Folinic acid 2 μM, 15 min uptake, read-out: I50, inhibition of folinic acid transport to H35 hepatoma cells; for transport to H35 hepatoma cells compared to methotrexate: ability to compete with folinic acid transport; for transport to tumor cells compared to methotrexate: fold versus methotrexate
mammalian cells = details: versus MTX; cited from earlier work
antitumor activity = details: result in words; cited from earlier work
[8] = cited from earlier work
[9] = cited from earlier work; remark: listed apart in the source
[10] = cited from earlier work; remark: listed apart in the source
[11] = Homo sapiens; CCRF-CEM; value marked *: corrected for the presence of the d-enantiomer of methyleneglutamate; duplicate experiments; read-out: I50, inhibition of tumor cell growth, CCRF-CEM human leukemia (*)
[12] = Homo sapiens; CCRF-CEM; values correspond to duplicate experiments; no asterisk; read-out: I50, inhibition of tumor cell growth, CCRF-CEM human leukemia
[13] = human leukemia cells; on a comparative basis

IC50 (H35 hepatoma cells)	IC50 [1]	IC50 [2]	Substrate activity [3]	solubility in alkali [4]	IC50 [7]	Structure (SMILES)	substrate for folylpolyglutamate synthetase [3]	antitumor activity in three tumor models (three tumor models)	metabolism to polyglutamyl derivatives [5]	further results
28 nM	15 nM	33 nM	8 and 10	soluble in alkali	–	Nc1nc(N)c2nc(CCc3ccc(C(=O)NC(C(=O)O)C(O)CC(=O)O)cc3)cnc2n1 (stereo not shown) [Compound 3, 4-amino-4-deoxy-10-deazapteroyl-3-hydroxyglutamic acid]	not substrates of CCRF-CEM human leukemia cell folylpolyglutamate synthetase; also recorded: None of the new antifolates (1, 2 or 3) is a substrate for folylpolyglutamate synthetase	excellent antitumor activity	–	–
–	–	–	1020	–	–	Nc1nc(N)c2nc(CCc3ccc(C(=O)N[C@@H](CCC(=O)O)C(=O)O)cc3)cnc2n1 [10-Deazaaminopterin, reference compound]	–	–	undergo polyglutamylation	–
11 nM	9 nM	32 nM	3 and 6	soluble in alkali	3 nM	C=C(CC(NC(=O)c1ccc(C(CC)Cc2cnc3nc(N)nc(N)c3n2)cc1)C(=O)O)C(=O)O (stereo not shown) [Compound 2, 4-amino-4-deoxy-10-ethyl-10-deazapteroyl-.tau.-methyleneglutamic acid]	not substrates of CCRF-CEM human leukemia cell folylpolyglutamate synthetase; also recorded: None of the new antifolates (1, 2 or 3) is a substrate for folylpolyglutamate synthetase	excellent antitumor activity	–	IC50 [6, 11]: 6 nM; IC50 [6, 12]: 4 nM; inhibition of growth of human leukemia cells compared to methotrexate [6, 13]: twice as powerful as methotrexate; transport to H35 hepatoma cells compared to methotrexate [7]: transported more efficiently to H35 hepatoma cells than methotrexate; transport to tumor cells compared to methotrexate [7]: three to five times more efficiently than methotrexate
9 nM	7 nM	30 nM	5 and 3	soluble in alkali	4 nM	C=C(CC(NC(=O)c1ccc(CCc2cnc3nc(N)nc(N)c3n2)cc1)C(=O)O)C(=O)O (stereo not shown) [Compound 1, 4-amino-4-deoxy-10-deazapteroyl-.tau.-methyleneglutamic acid]	not substrates of CCRF-CEM human leukemia cell folylpolyglutamate synthetase; also recorded: None of the new antifolates (1, 2 or 3) is a substrate for folylpolyglutamate synthetase	excellent antitumor activity	–	IC50 [6, 11]: 5 nM; IC50 [6, 12]: 4 nM; inhibition of growth of human leukemia cells compared to methotrexate [6, 13]: twice as powerful as methotrexate; transport to H35 hepatoma cells compared to methotrexate [7]: transported more efficiently to H35 hepatoma cells than methotrexate; transport to tumor cells compared to methotrexate [7]: three to five times more efficiently than methotrexate
–	–	–	–	–	–	CCC(Cc1cnc2nc(N)nc(N)c2n1)c1ccc(C(=O)N[C@@H](CCC(=O)O)C(=O)O)cc1 (stereo partly shown) [Compound 10-EDAM, 10-ethyl-10-deazaaminopterin]	–	–	metabolized to their poly-.tau.-glutamyl derivatives	metabolism to polyglutamyl derivatives ([5]; listed as 10-ethyl derivative): undergo polyglutamylation; transport to mammalian cells compared to MTX (mammalian cells): enhanced transport to mammalian cells compared to MTX; antitumor activity (antitumor activity): wide spectrum of antitumor activity
–	–	–	–	–	–	C#CCN(Cc1ccc2nc(N)[nH]c(=O)c2c1)c1ccc(C(=O)N[C@@H](CCC(=O)O)C(=O)O)cc1 [CB 3717, N^10-propargyl-5,8-dideazafolic acid]	–	–	–	conversion to polyglutamyl derivative in normal murine tissues [10]: converted to its polyglutamyl derivatives in normal murine tissues

Structure (SMILES)	IC50 (H35 hepatoma cells)	IC50 [1]	IC50 [2]	Substrate activity [3]	solubility in alkali [4]	IC50 [7]	substrate for folylpolyglutamate synthetase [3]	antitumor activity in three tumor models (three tumor models)	metabolism to polyglutamyl derivatives [5]	further results
CN(Cc1cnc2nc(N)nc(N)c2n1)c1ccc(C(=O)N[C@@H](CCC(=O)O)C(=O)O)cc1 [Methotrexate, reference compound]	10 nM	6 nM	–	–	–	18 nM	–	–	undergo polyglutamylation	IC50 ([6]; CCRF-CEM; values correspond to duplicate experiments; no asterisk; read-out: I50, inhibition of tumor cell growth, CCRF-CEM human leukemia): 8 nM; IC50 ([6]; Homo sapiens, CCRF-CEM; values correspond to duplicate experiments; no asterisk; read-out: I50, inhibition of tumor cell growth, CCRF-CEM human leukemia): 12 nM; metabolism to polyglutamyl derivatives ([5]; listed as MTX): metabolized to their poly-.tau.-glutamyl derivatives; metabolism to poly-glutamates in human tissues [8]: metabolism of the well known anticancer drug methotrexate to its poly-.tau.-glutamates in human tissues; formation of poly-glutamyl metabolites in rodent tissues [9]: formation of these metabolites in rodent tissues

— US4996207A, “Three new non-polyglutamatable deazaaminopterins” (priority 1990, dated 1991)
